Values belong to the compound of their own block, whether it stands above or below them.
Assays:
Assay type in all cases: physicochemical
[1] = Solubility and dissolution of peptide-linker conjugate and peptide in solvents and buffers
Text: The process for the formation of the drug substance 5 was originally described in U.S. Pat. No. 8,288,349 whose contents are hereby incorporated. The original process involved use of propylene glycol as the cosolvent in the conjugation process between peptide-linker 3 and the antibody h38C2. […] The more amorphous solid form is usually more soluble in different solvents and buffer solutions. […] During preparation of bioconjugate 5, it is desirable to have a conjugation mixture as a homogeneous solution at the beginning of the reaction in order to afford consistent reaction kinetics and more robust manufacturing process.
In the original process, propylene glycol was used as a cosolvent primarily to assist in the dispersion of the hydrophobic peptide-linker 3b in the aqueous histidine buffer solution at pH 6.5.

[2] = Degradation of peptide 3b in the conjugation mixture; conditions: higher temperatures (30-35° C.) and higher pH (about pH7.5)
Description: In order to investigate the impact of different conjugation reaction variables on the reaction rate, product quality and yield, a set of experiments were executed using design of experiments (DOE) approach. Three parameters were chosen for evaluation: pH of the conjugation mixture, temperature of the conjugation and the ratio of peptide to starting antibody. Other parameters such as composition of the buffer solution (20 mM histidine buffer), antibody concentration (16.7 mg/mL) and concentration of DMSO in solution (7%) were kept constant. The centre point for each parameter was pH6.5, 20° C. and a peptide:antibody ratio of 2.4:1. The low levels tested were pH5.5, 5° C. and a ratio of 1.8, and the high levels were pH7.5, 35° C. and a ratio of 3.
Several experiments whose variable values were at the center-point of all the parameter ranges were selected to provide information on possible non-linear effects. The protocol for these experiments was briefly as follows: Peptide 3b (25 mg) was placed in a 20 mL vial equipped with a magnetic stir bar. The solid was dissolved in DMSO (2.1 mL). Histidine buffer (20 mM, pH 6.5, 2.1 mL) was added to the solution. […] The reaction was monitored for completion by SEC and HIC chromatography methods. […] The in-situ yield of 5 and time of reaction completion (hours) were evaluated by HIC and SEC chromatographic methods. […]

[3] = Storage stability of activated esters of acid 6 at room temperature; conditions: solid, in contact with air
Text: This cyclic byproduct became the major constituent of the isolated solid after only a few days at RT. Since this side-reaction was envisioned to become even more problematic on scale due to the longer timelines for processing and isolation, a search for an alternative activating group for acid 6 was undertaken.

- Solubility in propylene glycol [1]: very low solubility
- Solubility in solvents other than DMSO [1]: limited solubility
- solubility ([1]; Solubility in DMSO): ≥ 100 mg/mL
- Degradation rate [2]: occurs at a faster rate
Structure (SMILES): CSCC[C@H](NC(=O)[C@H](Cc1ccccc1)NC(=O)[C@H](CCC(N)=O)NC(=O)[C@H](CC(=O)O)NC(=O)[C@H](Cc1ccc(O)cc1)NC(=O)[C@H](CC(C)C)NC(=O)[C@@H](NC(=O)[C@H](CCCCNC(=O)COCC(=O)Nc1ccc(CCC(=O)N2CCC2=O)cc1)NC(=O)[C@H](CC(=O)O)NC(=O)[C@H](CCCCNC(C)=O)NC(=O)[C@H](CCC(=O)O)NC(=O)[C@H](CC(=O)O)NC(=O)[C@H](CC(C)C)NC(=O)[C@@H]1CCCN1C(=O)[C@H](CCC(N)=O)NC(=O)[C@H](Cc1ccc(O)cc1)NC(=O)[C@H](CCCCNC(C)=O)NC(=O)[C@H](CCC(N)=O)NC(C)=O)C(C)O)C(=O)N[C@@H](CC(C)C)C(=O)N[C@@H](CCC(N)=O)C(=O)N[C@@H](CCC(N)=O)C(=O)NCC(N)=O (stereo partly drawn) [3b]

Structure (SMILES): CC(=O)NCCCC[C@H](N)C(=O)O [compound 2]
- solubility ([1]; MeCN or MeOH): low solubility

Structure (SMILES): O=C(COCC(=O)ON1C(=O)CCC1=O)Nc1ccc(CCC(=O)N2CCC2=O)cc1 [compound 8]
- Storage stability [3]: increasing amounts of the second component were noticed after the solid had been set aside for only a few hours
